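Grown in 96-well plates, cells were treated for 48 hours with each compound at five concentrations. Insufficient inhibition: endpoint recorded as highest concentration tested. Abbreviation: GI50, concentration required for 50% inhibition of growth.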 The source made the active and inactive calls. Rule as the data show it: active = GI50 up to about 1.1 µM and inactive = higher. Starred links: 1 amine or outer side, 2 acyl side, 3 side chain; linkers in the order of their positions; H or OH if unused. Non-standard residues stand in square brackets, D forms with d. Residues, ends and D or L forms follow the SMILES beside them. ξ: configuration not given here. X24 = O=C(C(CC(O)CO)O[*:1])[*:2]; Ile(3ξ) = CCC(C)[C@H](N)C(=O)O; NMeV = CN[C@H](C(=O)O)C(C)C; NMeA = CN[C@@H](C)C(=O)O; βAla = NCCC(=O)O

Among the test systems are CAKI-1; LOX IMVI; HOP-92; U-251; MOLT-4; SN12C; SK-MEL-5; HL-60; OVCAR-8; SR; TK-10; NCI-H23; OVCAR-4; CCRF-CEM; HOP-62; SF-268; A498; SF-295; MDA-MB-435.
Holding throughout (assay): NCI tumour cell line growth inhibition, 48 h

For `O=C(Cc1ccc([N+](=O)[O-])c([N+](=O)[O-])c1CC(=O)C(=O)Nc1cc(Cl)ccc1Cl)C(=O)Nc1cc(Cl)ccc1Cl`, the GI50 was > 100 µM (inactive) in the assay on CAKI-1; 26.2 µM (inactive) in the assay on LOX IMVI; > 100 µM (inactive) in the assay with HOP-92; 24.2 µM (inactive) with U-251; 30 µM (inactive) in the assay with MOLT-4; 59.8 µM (inactive) in the assay with SN12C. The GI50 with SK-MEL-5, in the assay with HL-60, in the assay with OVCAR-8, in the assay with SR, with TK-10 and with NCI-H23 was > 100 µM (inactive) each time. Besides, the GI50 in the assay with OVCAR-4 was > 100 µM (inactive); in the assay on CCRF-CEM, 17.9 µM (inactive); with HOP-62, > 100 µM (inactive); with SF-268 it was > 100 µM (inactive); in the assay on A498, > 100 µM (inactive); in the assay on SF-295, > 100 µM (inactive).
With `O=C1NC2C=CN(Cc3ccccc3)C=C2C(=O)N2CCCC12` (centres undefined), the GI50 in the assay with CAKI-1, with HOP-92, with U-251, in the assay with MOLT-4, in the assay on SN12C and with SK-MEL-5 was > 100 µM (inactive) in each case. For the same compound, the GI50 in the assay on HL-60, with OVCAR-8, in the assay on SR, with TK-10, in the assay with NCI-H23 and with OVCAR-4 was > 100 µM (inactive) throughout. Further, the GI50 in the assay with CCRF-CEM, in the assay on HOP-62, in the assay on SF-268, in the assay on A498 and with SF-295 was > 100 µM (inactive) in each case.
Consider `N#C/C(=N\c1ccccc1N(C(=O)c1ccccc1)C(=O)c1ccccc1)c1ccccc1`, for which the GI50 with CAKI-1 was 47.6 µM (inactive); in the assay with LOX IMVI it was 27.2 µM (inactive); in the assay on HOP-92, 24.7 µM (inactive); in the assay on U-251, 10.3 µM (inactive); with MOLT-4, 3.82 µM (inactive); with SN12C, > 71.8 µM (inactive). The GI50 with SK-MEL-5 is 70.8 µM (inactive); in the assay with HL-60, 0.923 µM (active); in the assay with OVCAR-8 it was 10.3 µM (inactive); in the assay with SR, 2.4 µM (inactive); in the assay on TK-10, > 100 µM (inactive); in the assay on NCI-H23, > 62.5 µM (inactive). The GI50 is 32.2 µM (inactive) with OVCAR-4; 2.25 µM (inactive) in the assay on CCRF-CEM; > 30.7 µM (inactive) in the assay with HOP-62; > 100 µM (inactive) in the assay on SF-268; > 59.2 µM (inactive) in the assay with A498; 8.89 µM (inactive) in the assay with SF-295.
Turning to `NC(CO)c1ccc(OCc2ccccc2)cc1` (centres undefined), the GI50 in the assay with CAKI-1 is > 53.7 µM (inactive); with LOX IMVI, 47.3 µM (inactive); with HOP-92, 27.7 µM (inactive); in the assay on U-251 it was > 100 µM (inactive); in the assay with MOLT-4, 27.5 µM (inactive); with SN12C it was > 91.8 µM (inactive). Also, the GI50 was > 100 µM (inactive) with SK-MEL-5; 24.4 µM (inactive) with HL-60; > 100 µM (inactive) with OVCAR-8; 31.2 µM (inactive) in the assay on SR; > 100 µM (inactive) in the assay with TK-10; > 100 µM (inactive) in the assay on NCI-H23. The GI50 in the assay with OVCAR-4 is > 92.7 µM (inactive); in the assay on CCRF-CEM, 40.6 µM (inactive); in the assay on HOP-62, > 100 µM (inactive); in the assay on SF-268, > 100 µM (inactive); in the assay on A498, > 100 µM (inactive); with SF-295, > 100 µM (inactive).
Take `CCCCCCCCOCC(O)COC(C)C` (centres undefined): the GI50 in the assay on CAKI-1 was 43.1 µM (inactive); in the assay with LOX IMVI, 25.8 µM (inactive); in the assay on HOP-92, 13.7 µM (inactive); in the assay on U-251, 89.3 µM (inactive); in the assay on MOLT-4, 17 µM (inactive); in the assay with SN12C it was 24.2 µM (inactive). For the same compound, the GI50 with SK-MEL-5 was 26.2 µM (inactive); in the assay with HL-60, 14.9 µM (inactive); with OVCAR-8, 70 µM (inactive); in the assay on SR, 17 µM (inactive); with TK-10 it was > 100 µM (inactive); with NCI-H23 it was 25.7 µM (inactive). For the same compound, the GI50 is 41.4 µM (inactive) in the assay with OVCAR-4; 20.9 µM (inactive) in the assay with CCRF-CEM; 91.8 µM (inactive) with HOP-62; 39.1 µM (inactive) in the assay on SF-268; 68.9 µM (inactive) in the assay with A498; 58.7 µM (inactive) in the assay on SF-295.
With `COc1cc2c(cc1OS(C)(=O)=O)N=C[C@@H]1CCCN1C2=O`, the GI50 in the assay with CAKI-1, in the assay on LOX IMVI, in the assay with HOP-92, in the assay on U-251, with MDA-MB-435 and in the assay with MOLT-4 was > 100 µM (inactive) throughout. Also, the GI50 with SN12C, in the assay on SK-MEL-5, in the assay on HL-60, in the assay on OVCAR-8, in the assay on SR and in the assay with TK-10 was > 100 µM (inactive) in each case. Also, the GI50 in the assay on NCI-H23 is > 100 µM (inactive); in the assay with OVCAR-4, > 100 µM (inactive); in the assay with CCRF-CEM, 72.3 µM (inactive); in the assay on SF-268 it was > 100 µM (inactive); with A498, > 100 µM (inactive); in the assay with SF-295 it was > 100 µM (inactive).
With `CCC(C)[C@@H]1NC(=O)[C@@H]2CCCN2C(=O)C(CC(O)CO)OC(=O)CCNC(=O)[C@H](C)N(C)C(=O)[C@H](C(C)C)N(C)C1=O` (some centres undefined) (cyclo([Ile(3ξ)][NMeV][NMeA][βAla][X24]P)), the GI50 with CAKI-1 was > 100 µM (inactive); in the assay on LOX IMVI it was 84.5 µM (inactive); in the assay on HOP-92, > 100 µM (inactive); in the assay with U-251, > 100 µM (inactive); with MOLT-4, 43.1 µM (inactive); in the assay with SN12C it was > 100 µM (inactive). For the same compound, the GI50 in the assay on SK-MEL-5, in the assay on HL-60, with OVCAR-8, in the assay on SR, in the assay on TK-10 and in the assay on NCI-H23 was > 100 µM (inactive) in each case. In addition, the GI50 with OVCAR-4 was > 100 µM (inactive); in the assay with CCRF-CEM it was 35.8 µM (inactive); in the assay with HOP-62 it was > 100 µM (inactive); with SF-268, > 100 µM (inactive); with A498 it was > 100 µM (inactive); in the assay on SF-295, 91 µM (inactive).
For the compound `COc1cc2cc3c4c(cc(OC)c(OC)c4c2cc1OC)CCN3C(=O)CCC(=O)O`, the GI50 in the assay on CAKI-1, in the assay with LOX IMVI, with HOP-92, with U-251, in the assay on MOLT-4 and with SN12C was > 100 µM (inactive) throughout. In addition, the GI50 in the assay with SK-MEL-5, in the assay with HL-60, with SR, in the assay with TK-10, with NCI-H23 and in the assay on OVCAR-4 was > 100 µM (inactive) in each case. Moreover, the GI50 with CCRF-CEM is > 100 µM (inactive); in the assay with HOP-62 it was > 100 µM (inactive); in the assay with SF-268, > 100 µM (inactive); in the assay on A498, 97.9 µM (inactive); with SF-295, > 100 µM (inactive).
`COc1ccc2c(c1)[n+]([O-])c(C(=O)C/C(=N\NC(=O)C[N+](C)(C)C)C(=O)Nc1cc(Cl)ccc1Cl)c(C)[n+]2[O-]`: the GI50 in the assay on CAKI-1, with LOX IMVI, with HOP-92, with U-251, in the assay with MOLT-4 and in the assay on SN12C was > 100 µM (inactive) in each case. The GI50 with SK-MEL-5 was > 100 µM (inactive); in the assay on HL-60 it was 88.3 µM (inactive); in the assay with OVCAR-8, > 100 µM (inactive); with SR, 43.3 µM (inactive); in the assay with TK-10, > 100 µM (inactive); in the assay on NCI-H23, > 100 µM (inactive). For the same compound, the GI50 with OVCAR-4, in the assay with CCRF-CEM, in the assay with HOP-62, in the assay on SF-268, in the assay with A498 and with SF-295 was > 100 µM (inactive) throughout.
`COc1ccc(-c2nc(-c3cc4c(ccc5ccccc54)oc3=O)cs2)cc1`: the GI50 is > 100 µM (inactive) in the assay with CAKI-1; > 100 µM (inactive) in the assay on LOX IMVI; > 100 µM (inactive) in the assay on HOP-92; > 10 µM (inactive) in the assay with U-251; > 100 µM (inactive) in the assay with MDA-MB-435; > 100 µM (inactive) with MOLT-4. The GI50 with SN12C was > 100 µM (inactive); in the assay with SK-MEL-5 it was > 100 µM (inactive); with HL-60, > 100 µM (inactive); with SR, > 100 µM (inactive); with TK-10, > 100 µM (inactive); with OVCAR-4 it was 43.7 µM (inactive). In addition, the GI50 with CCRF-CEM is > 100 µM (inactive); with HOP-62, 73.3 µM (inactive); in the assay with SF-268, > 100 µM (inactive); with SF-295, > 100 µM (inactive).
Consider `COc1ccc(-c2cc(C(=O)Nc3cccc(C(F)(F)F)c3)nc(S)n2)cc1`, for which the GI50 with CAKI-1, with LOX IMVI, in the assay with HOP-92, with U-251, with MOLT-4 and in the assay on SN12C was > 100 µM (inactive) each time. In addition, the GI50 in the assay with SK-MEL-5, with HL-60, in the assay with OVCAR-8, in the assay with SR, in the assay with TK-10 and in the assay with NCI-H23 was > 100 µM (inactive) each time. In addition, the GI50 in the assay with OVCAR-4, in the assay with CCRF-CEM, with HOP-62, with SF-268, in the assay with A498 and with SF-295 was > 100 µM (inactive) throughout.
